Reference: patent US11933781B2, “Fibrosis model and methods of use thereof” (The Regents of the University of Colorado, priority 2020, dated 2024)
Entries after “also recorded” stand apart in the source; their conditions may differ.

How the values were obtained:
[1] = test system: primary human lung fibroblasts (HLFs); experiment: Activation of human lung fibroblasts on 3 kPa hydrogels by HBEC conditioned media; type: cell-based; conditions: HLFs in IPF conditioned HBEC media supplemented with inhibitor
Experimental: Culture and treatment of HLFs: Primary human lung fibroblasts (HLFs) were obtained from control lungs not suitable for transplantation at National Jewish Health. Briefly, pieces of tissue were placed into a tissue-culture dish and weighed down by a coverslip. Cells were cultured in DMEM (Corning, Corning, New York, 10-013-cv) supplemented with L-glutamine (25-005-cl), penicillin/streptomycin (Corning, Corning, New York, 30-002-c1), and 10% fetal bovine serum (ATCC®, Manassas, Virginia, 30-2020). These fibroblasts were then sub-cultured in t-75 flasks. All HLFs used in this study (N=4) were seeded at passage 3. […]
Quantitative RT-PCR Analysis: Total RNA was extracted using RNeasy® Mini kit (Qiagen, Hilden, Germany) and quantified by NanoDrop™ (ThermoFisher Scientific™, Waltham, Massachusetts).Reverse transcription was completed using the High Capacity cDNA Reverse Transcription Kit (Applied Biosystems™, Thermo Fisher Scientific™, Waltham, Massachusetts). […]
Immunofluorescence and cell number quantification for HLF experiments: For fluorescence quantification, (i.e., vimentin or alpha-SMA) images were all processed using the same settings. Fluorescence intensity was determined by channel separation and measurement of mean gray value for the field and normalized to total cell number. Cell number was determined by automated counting in ImageJ. […]

[2] = test system: proximal, jammed cultures; experiment: IL-6 family cytokine induced unjamming of proximal airway epithelial cultures; type: cell-based, human; conditions: proximal cultures pre-treated, then stimulated with IL-6 family cytokines
Experimental: Live Cell Imaging and Dynamics Measurement: To assess cellular dynamics, time-lapse microscopy and subsequent analysis were completed. Two imaging schemes were utilized: (1) images were taken every 5 minutes for 200 minutes during HBEC differentiation; (2) images were taken every 20 minutes for 48, 96, or 144 hours after HBEC experimental intervention. Phase contrast images were acquired on a Keyence BZ-X810 with a stage incubator (37° C., 5% CO2). Dynamic analysis followed previously published workflows (10-12, 22). Briefly, using phase contrast images instantaneous velocities were mapped by particle image velocimetry utilizing open source PIVLab on MATLAB. Velocity fields were obtained with 2 passes (64×64 and 32×32 pixel size interrogation window with 50% overlap) with a pixel size of 0.75488 μm using a Fast Fourier Transformation method. Trajectories from the PIV were seeded onto a grid and obtained via forward-integration of subsequent fields. […]
Cell Shape Analysis: Cell shape measurements were achieved via cell border delineation by F-actin immunofluorescence. […] Similar to previously published workflows, we segmented images which were subsequently analyzed in ImageJ for the shape index (q=Perimeter√Area) and aspect ratio (major and minor axis) for all cells within a given field of view. […]

IPF HBECs [3] = experiment: Induction of the unjammed-to-jammed transition (UJT) in IPF HBECs; type: cell-based, human; conditions: day 14 IPF HBECs
From the text: (§1) Epithelial Cell Culture: Primary human bronchial epithelial cells (HBECs) were obtained from two sources (1) provided by Dr. Hong Wei Chu at National Jewish Health, or (2) lung transplant collection at the University of Colorado Hospital (IRB protocol: 11-1664 or 18-0572). Epithelial cells from bronchial brushes or CT-guided dissection were expanded to passage 2 before being cultured at air liquid interface (ALI). Control (N=11), IPF (N=6), and COPD (N=3) were age matched and controls had no history of chronic lung disease (Table 1). Cells were seeded on 24-Transwell plates (Corning, Corning, New York, 3470) coated with type I collagen (Corning, Corning, New York, 354236) and maintained under submerged conditions for five to seven days until the cells reached confluence. Culture media was a 1:1 mixture of DMEM and BEBM (Lonza, Basel, Switzerland, CC170) supplemented with retinoic acid (Sigma-Aldrich, Germany, R-2625) nystatin (Sigma-Aldrich, Germany N1638), and bovine serum albumin (FisherSci, Thermo Fisher Scientific, Waltham, Massachusetts BP9703100). Once confluent, apical media was removed and maintained at ALI. HBECs began recapitulating the in vivo airway, with production of mucus (6-9 days after establishing ALI) and development of a pseudostratified epithelium. Cells were switched to a starvation media (lacking supplemental epidermal growth factor, hydrocortisone, and bovine pituitary extract) 24 hours prior to experimentation.
(§2) For inhibitor, activator, and ligand treatments HBECs were cultured in a starvation media in the absence of EGF, hydrocortisone, and bovine pituitary extract for 24 hours prior to treatment initiation. Cells were then treated for 2-4 hours (with exception of AREG neutralizing antibody which was maintained in the culture media), media was aspirated, the wells were washed with warm PBS and then replaced with fresh starvation media without inhibitor/activator/ligand present, and subsequently imaged. For experiments that required subsequent media changes (96 hour) cells fresh starvation media was changed 48 hours afterwards.
Live Cell Imaging and Dynamics Measurement: To assess cellular dynamics, time-lapse microscopy and subsequent analysis were completed. Two imaging schemes were utilized: (1) images were taken every 5 minutes for 200 minutes during HBEC differentiation; (2) images were taken every 20 minutes for 48, 96, or 144 hours after HBEC experimental intervention. Phase contrast images were acquired on a Keyence BZ-X810 with a stage incubator (37° C., 5% CO2). Dynamic analysis followed previously published workflows (10-12, 22). Briefly, using phase contrast images instantaneous velocities were mapped by particle image velocimetry utilizing open source PIVLab on MATLAB. Velocity fields were obtained with 2 passes (64×64 and 32×32 pixel size interrogation window with 50% overlap) with a pixel size of 0.75488 μm using a Fast Fourier Transformation method. Trajectories from the PIV were seeded onto a grid and obtained via forward-integration of subsequent fields. These values were then used to determine mean-squared-displacement (MSD) and self-overlap order parameter (Q): MSD(Δt)= ? ri(t+Δt)−ri(t)|2 ? and Q(Δt)=N−1ΣwiNi=1 as previously published. Instantaneous room mean squared velocity (VRMS) of the monolayer was obtained as previously published: VRMS(t)=√1MΣ ? |v(t)2 ? jMj=1
Cell Shape Analysis: Cell shape measurements were achieved via cell border delineation by F-actin immunofluorescence. Images were segmented utilizing SeedWater Segmenter. Similar to previously published workflows, we segmented images which were subsequently analyzed in ImageJ for the shape index (q=Perimeter√Area) and aspect ratio (major and minor axis) for all cells within a given field of view. For each experimental condition an n≥3 was used with at least 3 independent wells per donor per treatment condition. […]

IPF HBECs [4] = experiment: Gene expression of ERBB receptors, YAP target genes and MUC5B in IPF HBECs; type: cell-based, human; conditions: IPF HBECs after inhibition
Experimental: Quantitative RT-PCR Analysis: Total RNA was extracted using RNeasy® Mini kit (Qiagen, Hilden, Germany) and quantified by NanoDrop™ (ThermoFisher Scientific™, Waltham, Massachusetts).Reverse transcription was completed using the High Capacity cDNA Reverse Transcription Kit (Applied Biosystems™, Thermo Fisher Scientific™, Waltham, Massachusetts). Gene expression was analyzed by using TaqMan® Advanced Master Mix (Thermo Fisher Scientific™, Waltham, Massachusetts and TaqMan® assays. They were subsequently run in triplicate on the ViiA™ 7 Real-Time machine (Thermo Fisher Scientific™, Waltham, Massachusetts). Primer IDs were: β-ACTIN, Hs01060665_g1; MUC5B, Hs00861595_m1; MUC5AC, Hs01365616_m1; EGFR, Hs0176090_m1; ERBB2, Hs01001580_m1; ZEB1, Hs00232783_m1; SNAI1, Hs00195591_m1; VIM, Hs00185584_m1; CTGF, Hs00170014_m1; AREG, Hs00950669_m1; FN1, Hs01549976_m1; PDGFRA, Hs00998018_m1; PDGFA, Hs00234994_m1; PDGFRB, Hs01019589_m1; PDGFB, Hs00966522_m1; TGFBRI, Hs00610320_m1; TGFBI, Hs00998133_m1; COL1A1, Hs00164004_m1; ACTA2, Hs00426835; MMP3, Hs00968305_m1; MMP9, Hs00957562_m1; TIMP1, Hs01092512_g1; and TIMP2, Hs00234278_m1.

COPD HBECs = experiment: Induction of jamming in COPD HBECs; type: cell-based, human
From the text: as §1
as §2, with “afterwards. […]” for “afterwards.”

IPF HBECs [5] = experiment: YAP immunofluorescence in IPF HBECs; type: cell-based, human; conditions: IPF HBECs 48 hours after treatment
Experimental: Immunofluorescence staining: Cells were fixed with 4% paraformaldehyde in PBS with calcium and magnesium for 30 minutes at room temperature. Cells were then washed with PBS and subsequently permeabilized (Triton™-X, at 0.1%) and blocked with 5% bovine serum albumin in PBS for 1 hour at room temperature. Cells were then incubated for >16 hours at 4 degrees with primary antibodies. Primary antibodies were aspirated, and cells were washed with PBS+0.1% Tween-20 at room temperature. Cells were then incubated for 1 hour at room temperature with secondary antibodies (1:500) and/or Phalloidin-iFluor™ 488 1:2000. Cells were stained with 4′,6-diamidino-2-phenylindole at 1:20000 (BioLegend®, San Diego, California, 422801). Subsequently, transwell membranes, or hydrogels, were removed from the well and mounted on glass slides with Fluoromount-G® (SouthernBiotech™, Birmingham, Alabama, 0100-01). Slides were then visualized using an Olympus BX63 microscope (Olympus, Tokyo, Japan).
Immunofluorescence and cell number quantification for HBEC experiments: For total fluorescence quantification (i.e., ERBB2), all images were processed in the same manner with the same microscopy settings. To determine mean fluorescence the channel of interest was separated in ImageJ, and the mean gray value was measured for the field of view and normalized by the total number of cells. Cell counting was achieved by taking 40×images and manually counting all nuclei in a field of view (approximately 200-300). The number of cells also expressing the marker of interested were then counted and normalized by the total number of cells per field. For each experiment a biological n≥3 was used with at least 5 fields of view per well and at least 2 wells being counted in total per donor.

| Compound | fibroblast activation [1] | rescue of increase in cell number and pro-fibrotic gene expression [1] | effect of inhibitor pre-treatment on IL-6 family cytokine induced unjamming [2] | induction of the UJT (jamming) in IPF epithelia (IPF HBECs [3]) | transcription of ERBB receptors, YAP target genes and MUC5B (IPF HBECs [4]) | induction of jamming in COPD epithelia (COPD HBECs) | YAP nuclear exclusion (IPF HBECs [5]) |
| --- | --- | --- | --- | --- | --- | --- | --- |
| NC(=O)c1ccc(-c2nc(-c3ccc4c(c3)OCO4)c(-c3ccccn3)[nH]2)cc1 [SB431542] | reduced fibroblast activation | none of these treatments alone were able to fully rescue the increase in cell number or the associated pro-fibrotic gene expression | – | – | – | – | – |
| O=[N+]([O-])c1ccc2c(c1)S(=O)(=O)C=C2 [Stattic] | – | – | JAK/STAT signaling was dispensable for IL-6 family cytokine induced unjamming in proximal cultures | did not induce the UJT | – | – | – |
| Verteporfin | – | – | SRC and YAP were essential for the acquisition of this fluid-like phenotype | halted migration and induced a cobblestone appearance in the epithelia | reduced the transcription of ERBB receptors, YAP target genes, and MUC5B nearly back to control levels; also recorded: decreases 738 ERBB-YAP target gene expression | not responsive to ERBB-YAP inhibition | results in YAP nuclear exclusion |
